Here are results for five molecules from patent publication US4239887A, “Pyridothienotriazines” (USV Pharmaceutical Corporation, priority 1979, dated 1980).

Usually ED50 stands for the dose that gives a 50% effect, or the effect in half of the subjects.

Experiment [1] in a line: oral anti-allergy activity in standard tests. The class given is in vivo. The settings on record: standard tests for anti-allergy activity.
Experiment [2] has as its system formation of a wheal (Rat Passive Cutaneous Anaphylaxis). As to the kind of experiment: Rat Passive Cutaneous Anaphylaxis (PCA) Screen, inhibition of wheal formation. The format is in vivo. As to conditions: for ED50: oral (p.o.), rat PCA, read-out: ED50 (dose required to give 50% reduction in wheal size). The source says: The compounds of this invention have potent activity in inhibiting the formation of a wheal when screened according to the Rat Passive Cutaneous Anaphylaxis Screen as is described by I. Mota, Life Sciences, 7, 465 (1963) and Z. Ovary, et al., Proceedings of Society of Experimental Biology and Medicine, 81, 584 (1952).
The activities are given as ED50 values, which are the doses required to give 50% reductions in wheal size.

With `Oc1nnnc2c1sc1ncccc12` [4-Hydroxy-pyrido[3',2':4,5]thieno[3,2-d]-1,2,3-triazine, reference compound], the “anti-allergy activity (in words)” value in experiment [1] is “essentially inactive”. For the same molecule, the “inhibition of wheal size” value in experiment [2] (tested at 25 mg/kg, p.o.) is reported as 31%.

Regarding `Cc1cc(C)c2c(n1)sc1c(O)nnnc12` [7,9-diCH3, OH, 4-Hydroxy-7,9-dimethylpyrido[3',2':4,5]thieno[3,2-d]-1,2,3-triazine], the ED50 in experiment [2] was 5.6 mg/kg.

With `Cc1ccc2c(n1)sc1cnnnc12` [7-CH3, H, 7-Methylpyrido[3',2':4,5]thieno[3,2-d]-1,2,3-triazine], the ED50 in experiment [2] was determined as 1 mg/kg.

For `Cc1ccc2c(n1)sc1c(O)nnnc12` [7-CH3, OH, 4-Hydroxy-7-methylpyrido[3',2':4,5]thieno[3,2-d]-1,2,3-triazine], the 50% effective dose (ED50) in experiment [2] came to 6 mg/kg.

Consider `Oc1nnnc2c1sc1nc(-c3ccccc3)ccc12` [7-phenyl, OH, 4-Hydroxy-7-phenylpyrido[3',2':4,5]thieno[3,2-d]-1,2,3-triazine], for which the median effective dose (ED50) in experiment [2] came out at 0.74 mg/kg.
